Consider four compounds from article PMC10878032 (Molecular cancer therapeutics, 2023).

Where a SMILES comes first, the peptide text is derived from it. The star is where a group is joined. Cbz = O=C(OCc1ccccc1)*

The conditions of data set [1]: cited from earlier work.
A further data set deals with MCF-7 cells. As to the kind of experiment: aggresome formation and immunostaining. It is filed as cell-based, human. The following applies: MCF-7, 24 hours; SP-2-225 10 μmol/L, MG-132 5 μmol/L.
The test system of data set [2] is MCF-7 breast cancer cells. Put plainly: immunoblot of substrate acetylation in MCF-7 cells. In kind it is cell-based, human. The following applies: SP-2-225 10 μmol/L, SAHA and SP-1–161 1 μmol/L, Western blot. (In general: Immunoblotting shows a protein as a band on a membrane.)
A further data set deals with bladder cancer. The following applies: cited from earlier work.

Turning to `Cc1[nH]c2ccccc2c1CCNCc1ccc(/C=C/C(=O)NO)cc1` [LBH589], the direct cytotoxic effect result in data set [1] is listed as “direct cytotoxic effect even at nanomolar concentrations”.

On to `CC(C)C[C@@H](C=O)NC(=O)[C@H](CC(C)C)NC(=O)[C@H](CC(C)C)NC(=O)OCc1ccccc1` [MG-132] (Cbz-Leu-Leu-Leu-aldehyde), for which the aggresome formation entry with MCF-7 cells is “significant aggresome formation”. With `O=C(CCCCCCC(=O)Nc1ccccc1)NO` [SAHA, suberoylanilide hydroxamic acid], in data set [2], the “acetylation of histone H3” value was “increased the acetylation of α-tubulin and histone H3”; the “acetylation of α-tubulin” value is reported as “increased the acetylation of α-tubulin”. As to `O=C(CCCCCCC(=O)Nc1ccc([C@H]2O[C@@H](CSc3nc(-c4ccccc4)c(-c4ccccc4)o3)C[C@@H](c3ccc(CO)cc3)O2)cc1)NO` [Tubacin], in the data set with bladder cancer, the radiosensitization effect result was “demonstrated radiosensitization effect”.
